Measurements from patent publication US6375974B1 (Mitsui Takeda Chemicals, Inc., priority 1998, dated 2002).

What was measured:
[1] = ethanol; cited from earlier work
[2] = dissolution of fine grains in water by slow stirring; format: physicochemical; conditions: 15 g fine grains (80-mesh pass) in 10 l of water at 20° C., slowly stirred for 24 hours
Excerpt: Because of the low dissolution rate, fumaric acid cannot be completely dissolved but remains as fine grains giving a slurry in these conventional methods. […] When such an aqueous fumaric acid solution is employed in sterilizing meats, the remaining fumaric acid grains sometimes damage the meat tissue.

[3] = system: gram negative bacteria; conditions: cited from earlier work
[4] = system: various bacteria such as E. coli 0-157; conditions: at 1.0% and 1.5%; cited from earlier work
[5] = system: various gram negative bacteria; conditions: cited from earlier work
[6] = system: Escherichia coli O-157; conditions: cited from earlier work
[7] = cited from earlier work

CCO [ethanol]
time after which a bactericidal effect was exerted [1]: 60 min

O=C(O)/C=C/C(=O)O [fumaric acid]
dissolution of fine grains [2]: not completely dissolved | growth of gram negative bacteria [3]: inhibited the growth | bactericidal effect compared with other organic acids [4]: exceeding those of other organic acids | bactericidal effect ([5]; gram negative bacteria (E. coli, salmonella, Shigella, etc.), short contact time): potent bactericidal effect | antibacterial effect ([5]; within a short time, compared with other organic acids): strong antibacterial effect | bactericidal effect [6]: strong bactericidal effect

O=C([O-])/C=C/C(=O)O.[Na+] [monosodium fumarate]
concentration showing bactericidal effects ([7]; aqueous solution): 0.8% | bactericidal effects ([7]; concentration of 0.6% or less): did not show bactericidal effects
